Here are results for 11 compounds from patent US20150218172A1, “Pyrrolo[2,3-D]Pyrimidine Tropomyosin-Related Kinase Inhibitors” (PFIZER LIMITED, priority 2012, published 2015).

pIC50: −log10 of the molar value.

In the assay the target is T1, TrkA (Homo sapiens, UniProt P04629).
T1 construct: aa 441-796; His; purchased Invitrogen PV3144
T1 sequence (P04629 441-796): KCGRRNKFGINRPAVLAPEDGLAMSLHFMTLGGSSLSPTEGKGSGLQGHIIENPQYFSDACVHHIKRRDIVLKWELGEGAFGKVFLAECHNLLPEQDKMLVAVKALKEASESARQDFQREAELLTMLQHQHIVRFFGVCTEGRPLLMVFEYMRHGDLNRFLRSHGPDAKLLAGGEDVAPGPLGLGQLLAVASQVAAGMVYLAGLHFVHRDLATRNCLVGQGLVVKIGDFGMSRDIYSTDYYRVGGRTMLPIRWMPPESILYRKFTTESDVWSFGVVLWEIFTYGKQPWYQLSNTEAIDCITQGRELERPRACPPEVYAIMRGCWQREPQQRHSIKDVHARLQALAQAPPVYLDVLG
Description: Isolated TRK enzyme assay (HTRF KinEASE-TK kit), PV3144 TrkA enzyme assay. Type of assay: biochemical. As to conditions: PV3144 TrkA enzyme assay, recombinant His-tagged cytoplasmic domain aa 441-796, 4 nM enzyme, 40 uM ATP; arithmetic mean where more than one reading; read-out: Trka enzyme (IC50). Here is the method:
Isolated TRK Enzyme assays use the HTRF KinEASE-TK kit (Cisbio Cat#62TK0PEJ) with recombinant His-tagged cytoplasmic domains of each TRK receptor sourced from Invitrogen (see table below). This activity-assay measures the phosphorylation of tyrosine residues within a substrate from the HTRF kit which has been validated by Cisbio for a variety of tyrosine kinases including the TRK receptors.
0.5 mM stock solutions of test compounds are prepared and serially diluted in 100% DMSO. A standard curve using the compound of Example 135 disclosed in WO2005/116035 of 150 uM is also prepared on each test plate. High percentage effect (HPE) is defined by 150 uM (using the compound of Example 135 as disclosed in WO2005/116035) and 0% effect (ZPE) is defined by 100% DMSO. Greiner low volume black plates containing 0.2 ul of serially diluted compound, standard and HPE/ZPE are created using the Bravo nanolitre dispenser.
1X enzyme buffer is prepared from 5X Enzymatic Buffer from the Cisbio KinEASE TK kit using MilliQ water. The buffer is then supplemented with 10 mM MgCl and 2 mM DTT (both from Sigma). In the case of TRKB, the buffer is also supplemented with 125 nM Supplement Enzymatic Buffer (SEB) from the Cisbio kit.
2X FAC of enzyme and 2X FAC ATP diluted in 1X complete enzyme buffer is incubated at room temperature for 20 minutes to preactivate the enzyme. Following this preactivation step, 5 ul/well of enzyme+ATP mix is added using a Multidrop Micro to the assay plate, spotted with 0.2 ul 100% DMSO compound. This is left for 20 mins at room temperature before adding 5 ul of 2 uM TK-substrate-Biotin (from the Cisbio kit) diluted in 1X enzyme buffer (1 uM FAC) using the Multidrop Micro. The reaction is incubated at room temperature for the optimized assay reaction time (see table). The reaction is stopped by adding 10 ul/well HTRF Detection Buffer containing 0.25 uM Streptavidin-XL665 (0.125 uM FAC) and 1:200 TK Antibody-Cryptate using a Multidrop.
After the Detection Reagent addition, plates are covered and incubated at room temperature for 60 minutes. HTRF signal is read using an Envision reader, measured as a ratio of emissions at two different wavelengths, 620 nm and 665 nm. […] Test compound data are expressed as percentage inhibition defined by HPE and ZPE values for each plate. Percentage inhibition in the presence of test compound is plotted against compound concentration on a log scale to determine an IC50 from the resultant sigmoid curve.
Below are TrkA IC50 data generated using the PV3144 TrkA enzyme assay. Where more than one reading was taken, the arithmetic mean is presented.
Background: Time-resolved FRET reads energy transfer from a long-lived donor to a nearby acceptor.
As a reminder, the pIC50 is the IC50 on a negative log10 scale, so that one unit is a factor of ten. Regarding `CC(CO)n1cc(C(=O)c2ccnc(NC(=O)Cc3ccc(C#N)cc3)c2)c2cncnc21` (racemic) [Example 32, 2-(4-cyanophenyl)-N-(4-{[7-(1-hydroxypropan-2-yl)-7H-pyrrolo[2,3-d]pyrimidin-5-yl]carbonyl}pyridin-2-yl)acetamide], the pIC50 was 7.00.
For `CC(CO)n1cc(C(=O)c2ccnc(NC(=O)Cc3ccc(C#N)cc3)c2)c2cncnc21` (single isomer, unassigned) [Example 33, 2-(4-cyanophenyl)-N-(4-{[7-(1-hydroxypropan-2-yl)-7H-pyrrolo[2,3-d]pyrimidin-5-yl]carbonyl}pyridin-2-yl)acetamide] the value was 5.59; for `CC(CO)n1cc(C(=O)c2ccnc(NC(=O)Cc3ccc(C#N)cc3)c2)c2cncnc21` (single isomer, unassigned) [Example 34, 2-(4-cyanophenyl)-N-(4-{[7-(1-hydroxypropan-2-yl)-7H-pyrrolo[2,3-d]pyrimidin-5-yl]carbonyl}pyridin-2-yl)acetamide], 6.48; for `O=C(Cc1ccc(Cl)cc1)Nc1cc(C(=O)c2cn([C@H]3CC[C@H](O)CC3)c3ncncc23)ccn1` [Example 1, 2-(4-chlorophenyl)-N-(4-{[7-(trans-4-hydroxycyclohexyl)-7H-pyrrolo[2,3-d]pyrimidin-5-yl]carbonyl}pyridin-2-yl)acetamide], 7.64.
Then `N#Cc1ccc(CC(=O)Nc2cc(C(=O)c3cn([C@H]4CC[C@H](O)CC4)c4ncncc34)ccn2)cc1` [Example 2, 2-(4-cyanophenyl)-N-(4-{[7-(trans-4-hydroxycyclohexyl)-7H-pyrrolo[2,3-d]pyrimidin-5-yl]carbonyl}pyridine-2-yl)acetamide], with 7.08.
For `Cc1cc(C)n(CC(=O)Nc2cc(C(=O)c3cn([C@H]4CC[C@H](O)CC4)c4ncncc34)ccn2)n1` [Example 3, 2-(3,5-dimethyl-1H-pyrazol-1-yl)-N-(4-{[7-(trans-4-hydroxycyclohexyl)-7H-pyrrolo[2,3-d]pyrimidin-5-yl]carbonyl}pyridin-2-yl)acetamide], the pIC50 is 6.74.
For `Cc1cc(C)n(CC(=O)Nc2cc(C(=O)c3cn([C@H]4CC[C@@H](O)CC4)c4ncncc34)ccn2)n1` [Example 4, 2-(3,5-dimethyl-1H-pyrazol-1-yl)-N-(4-{[7-(cis-4-hydroxycyclohexyl)-7H-pyrrolo[2,3-d]pyrimidin-5-yl]carbonyl}pyridin-2-yl)acetamide] the value was 7.13.
For `N#Cc1ccc(CC(=O)Nc2cc(C(=O)c3cn([C@H]4CC[C@@H](O)CC4)c4ncncc34)ccn2)cc1` [Example 5, 2-(4-cyanophenyl)-N-(4-{[7-(cis-4-hydroxycyclohexyl)-7H-pyrrolo[2,3-d]pyrimidin-5-yl]carbonyl}pyridin-2-yl)acetamide], the pIC50 was 7.12.
For `O=C(Cc1ccc(Cl)cc1)Nc1cc(C(=O)c2cn([C@H]3CC[C@@H](O)CC3)c3ncncc23)ccn1` [Example 6, 2-(4-chlorophenyl)-N-(4-{[7-(cis-4-hydroxycyclohexyl)-7H-pyrrolo[2,3-d]pyrimidin-5-yl]carbonyl}pyridin-2-yl)acetamide] the value was 7.67.
Then `CC(C)(CO)n1cc(C(=O)c2ccc(C#N)c(NC(=O)Cc3ccc(C(F)(F)F)cc3)c2)c2cnc(N)nc21` [Example 7, N-{5-[2-Amino-7-(2-hydroxy-1,1-dimethyl-ethyl)-7H-pyrrolo[2,3-d]pyrimidine-5-carbonyl]-2-cyano-phenyl}-2-(4-trifluoromethyl-phenyl)-acetamide], with 8.23; and `CC(C)(CO)n1cc(C(=O)c2ccc(C#N)c(NC(=O)Cc3ccc(Cl)cn3)c2)c2cnc(N)nc21` [Example 8, N-(5-{[2-amino-7-(1-hydroxy-2-methylpropan-2-yl)-7H-pyrrolo[2,3-d]pyrimidin-5-yl]carbonyl}-2-cyanophenyl)-2-(5-chloropyridin-2-yl)acetamide], with 7.49.
